According to patent US20260217983A1, “SULFONIUM SALT PHOTOINITIATORS AND METHODS OF LED CURING A COMPOSITION WITH SAID SULFONIUM SALT PHOTOINITIATORS” (ARKEMA FRANCE, priority 2022, published 2026):

Columns and labels:
[1] = Real time FT-IR curing performance in UViCure S105 at 365 and 385 nm; conditions: for Polymerization rate Rp/[M0]*100 / Final conversion: UViCure S105, 20 μm thickness, under air; for Final conversion: epoxide band; for cure speed compared with photoinitiators known from prior art such as Omnicat BL 550: LED lamp conditions, Example 2
Experimental: (§1) The curing performance of individual products prepared above was assessed using real time FT-IR measurement. The photoinitiators were dissolved in cycloaliphatic epoxy resin UViCure S105 (available from Sartomer) at the indicated wt % loading, applied onto the FT-IR measurement plate and irradiated with the indicated LED light source. The polymerization rate and final reactive group conversion were determined by monitoring the change of the relevant infrared band near 900 cm^−1 corresponding to an epoxide ring during irradiation. The molar extinction coefficients for the photoinitiator products (ε, expressed in M^−1 cm^−1) were determined in acetonitrile at 10^-3 M or 10^-5 M concentration.

[2] = Molar extinction coefficient in acetonitrile; type: physicochemical
Experimental: as §1

[3] = Colour index 'b' of formulations before and after polymerization; type: physicochemical; conditions: UViCure S105E, thin samples (20 μm), under air, 300 s irradiation
Experimental: The low yellowing characteristics can be measured by the Colour index ‘b’ value on cured films.
Formulations comprising the photoinitiators and neat UViCure S105E resin were prepared as described at example 2.

[4] = Belt curing performance (thumb-twist depth cure) in UViCure S105E resin; conditions: 24 μm film, under air, PI 2 wt %
Experimental: (§2) The photoinitiators were dissolved either in neat UViCure S105E resin or a hybrid acrylate/epoxy resin (prepared by mixing 60 wt parts UViCure S105E, 15 wt parts UViCure S130 and 25 wt parts SR492; all product are available from Sartomer). Formulations were prepared by combining all materials in the given proportions and then stirring at 30-40° C. until the samples were fully homogeneous; the formulations were then allowed to cool to room temperature. For all experiments, the formulations were cured on Leneta Form 3N-31 gloss finish paper at 6 μm and 24 μm film thickness using a belt-cure instrument; the films were prepared using a K-bar. All films were then cured under an LED lamp at a given belt speed. ‘Depth cure’ for each formulation was assessed using the ‘thumb-twist’ test (where no visible mark is made when a thumb is pressed down firmly onto the coating with a twisting motion), and from the belt speed; the calculated cure speed (in m/min) is given.

[5] = Belt curing performance (thumb-twist depth cure) in hybrid acrylate/epoxy resin; conditions: 24 μm film, under air, PI 2 wt %
Experimental: as §2

[6] = Real time FT-IR curing performance at 405 nm in neat TMPTA; conditions: 20 μm thickness, laminated; for Acrylate Polymerization rate Rp/[M0]*100: LED @405 nm (110 W/cm^2); for Acrylate Final conversion: LED @405 nm (110 mW/cm^2)
Experimental: (§3) The curing performance of individual products prepared above was assessed using real time FT-IR measurement. The photoinitiators were dissolved either in neat trimethylolpropane triacrylate (TMPTA; available as SR351 from Sartomer) or in a 1:1 (w/w) mixture of TMPTA and UViCure S105 as indicated, applied onto the FT-IR measurement plate, laminated to prevent oxygen inhibition, and irradiated with the indicated LED light source. For the epoxy component, the polymerization rate and final reactive group conversion were determined by monitoring the change of the relevant infrared band near 900 cm^−1 corresponding to an epoxide ring. For the acrylate component, the C═C stretch band near 1625 cm^−1 was used.

[7] = Real time FT-IR curing performance at 405 nm in UViCure S105/TMPTA (1:1); conditions: LED @405 nm (110 mW/cm^2), 20 μm thickness, laminated
Experimental: as §3

[8] = LED @365 nm (120 W/cm^2), PI loading 1 wt % (Omnicat BL 550 4 wt %; Speedcure 938/CPTX 1/0.5 wt %)
[9] = LED 365 nm, 100% intensity (=70.1 mJ/cm^2), belt speed 40 m/min

**Q.** For `CCCOc1ccc(Cl)c2c(=O)c3cc([S+](c4ccc(C)cc4)c4ccc(C(=O)c5ccccc5)cc4)ccc3sc12` (stereo not shown) [Photoinitiator 3, (4-benzoylphenyl)(8-chloro-9-oxo-5-propoxy-9H-thioxanthen-2-yl)(4-methylphenyl)sulfonium hexafluorophosphate], which “Polymerization rate Rp/[M0]*100” value [1, 8] is on record?
**A.** 2.70 s⁻¹

**Q.** And the Final conversion ([1]; LED @365 nm (120 W/cm^2))?
**A.** 38%

**Q.** What about the “Polymerization rate Rp/[M0]*100” value ([1]; LED @385 nm (160 W/cm^2)) of the same compound?
**A.** 2.46 s⁻¹

**Q.** And the Final conversion ([1]; LED @385 nm (160 W/cm^2))?
**A.** 37%

**Q.** And the “ε at 365 nm” value [2]?
**A.** 17066 M⁻¹ cm⁻¹

**Q.** And the “ε at 385 nm” value [2]?
**A.** 17083 M⁻¹ cm⁻¹

**Q.** What about the “Colour index ‘b’ value After Polymerization” value ([3]; LED @365 nm (120 mW/cm^2)) of the same compound?
**A.** 7.40

**Q.** What about the “Colour index ‘b’ value Before Polymerization” value ([3]; LED @365 nm (120 mW/cm^2)) of the same compound?
**A.** 11.28

**Q.** And the “Colour index ‘b’ value After Polymerization” value ([3]; LED @385 nm (160 mW/cm^2))?
**A.** 7.48

**Q.** What about the “Colour index ‘b’ value Before Polymerization” value ([3]; LED @385 nm (160 mW/cm^2)) of the same compound?
**A.** 8.40

**Q.** And the “Cure speed in UViCure S105E resin” value [4, 9]?
**A.** 4.8 m/min

**Q.** And the “Cure speed in UViCure S105E resin” value ([4]; LED 395 nm, 40 m/min, 100% intensity (=164.5 mJ/cm^2))?
**A.** 8.7 m/min

**Q.** What about the “Cure speed in hybrid acrylate/epoxy resin” value [5, 9] of the same compound?
**A.** 2.2 m/min

**Q.** What about the “Cure speed in hybrid acrylate/epoxy resin” value ([5]; LED 395 nm, 80 m/min, 50% intensity (=36.9 mJ/cm^2)) of the same compound?
**A.** no cure

**Q.** What about the “Acrylate Polymerization rate Rp/[M0]*100” value [6] of the same compound?
**A.** 5.88 s⁻¹

**Q.** What about the “Acrylate Final conversion” value [6] of the same compound?
**A.** 45%

**Q.** What about the “Acrylate Final conversion” value [7] of the same compound?
**A.** 75%

**Q.** And the “Acrylate Polymerization rate Rp/[M0]*100” value [7]?
**A.** 5.69 s⁻¹

**Q.** What about the “Epoxy Final conversion” value [7] of the same compound?
**A.** 35%

**Q.** And the “Epoxy Polymerization rate Rp/[M0]*100” value [7]?
**A.** 2.43 s⁻¹

**Q.** What does the source list for `COC(=O)COc1ccc2sc3ccc(-[s+]4c5ccccc5c(=O)c5cc(OCC(=O)OC)ccc54)cc3c(=O)c2c1` (stereo not shown) [Photoinitiator 6, 2-(2-methoxy-2-oxoethoxy)-10-[7-(2-methoxy-2-oxoethoxy)-9-oxo-9H-thioxanthen-2-yl]-9-oxo-9H-thioxanthen-10-ium Hexafluorophosphate]?
**A.** Polymerization rate Rp/[M0]*100 [1, 8]: 0.72 s⁻¹; Final conversion ([1]; LED @365 nm (120 W/cm^2)): 35%; Polymerization rate Rp/[M0]*100 ([1]; LED @385 nm (160 W/cm^2)): 2.01 s⁻¹; Final conversion ([1]; LED @385 nm (160 W/cm^2)): 36%; ε at 365 nm [2]: 18314 M⁻¹ cm⁻¹; ε at 385 nm [2]: 24656 M⁻¹ cm⁻¹

**Q.** For `CC(C)c1ccc2c(c1)c(=O)c1ccccc1[s+]2-c1ccc(Oc2ccccc2)cc1` (stereo not shown) [Photoinitiator 12, 9-oxo-10-(4-phenoxyphenyl)-2-(propan-2-yl)-9H-thioxanthen-10-ium Hexafluorophosphate], which “Polymerization rate Rp/[M0]*100” value [1, 8] is on record?
**A.** 2.93 s⁻¹

**Q.** And the Final conversion ([1]; LED @365 nm (120 W/cm^2))?
**A.** 32%

**Q.** What about the “Polymerization rate Rp/[M0]*100” value ([1]; LED @385 nm (160 W/cm^2)) of the same compound?
**A.** 2.74 s⁻¹

**Q.** What about the Final conversion ([1]; LED @385 nm (160 W/cm^2)) of the same compound?
**A.** 36%

**Q.** And the “ε at 365 nm” value [2]?
**A.** 185 M⁻¹ cm⁻¹

**Q.** What about the “ε at 385 nm” value [2] of the same compound?
**A.** 137 M⁻¹ cm⁻¹

**Q.** Which “Polymerization rate Rp/[M0]*100” value [1, 8] does the source give for `CCCOc1ccc(Cl)c2c1[SH](c1ccc(Oc3ccccc3)cc1)c1ccccc1C2=O` (stereo not shown) [Photoinitiator 16, 1-chloro-9-oxo-10-(4-phenoxyphenyl)-4-propoxy-9H-thioxanthen-10-ium hexafluorophosphate] here?
**A.** 2.88 s⁻¹

**Q.** And the Final conversion ([1]; LED @365 nm (120 W/cm^2))?
**A.** 40%

**Q.** And the “Polymerization rate Rp/[M0]*100” value ([1]; LED @385 nm (160 W/cm^2))?
**A.** 3.71 s⁻¹

**Q.** And the Final conversion ([1]; LED @385 nm (160 W/cm^2))?
**A.** 38%

**Q.** What about the “ε at 365 nm” value [2] of the same compound?
**A.** 20030 M⁻¹ cm⁻¹

**Q.** What about the “ε at 385 nm” value [2] of the same compound?
**A.** 6830 M⁻¹ cm⁻¹

**Q.** What does the source list for `COc1ccc(-c2ccc(-[s+]3c4ccccc4c(=O)c4cc(C(C)C)ccc43)cc2)cc1` (stereo not shown) [Photoinitiator 26, 10-(4′-methoxy[1,1-biphenyl]-4-yl)-9-oxo-2-(propan-2-yl)-9H-thioxanthen-10-ium hexafluorophosphate]?
**A.** Polymerization rate Rp/[M0]*100 [1, 8]: 4.94 s⁻¹; Final conversion ([1]; LED @365 nm (120 W/cm^2)): 26%; Polymerization rate Rp/[M0]*100 ([1]; LED @385 nm (160 W/cm^2)): 3.08 s⁻¹; Final conversion ([1]; LED @385 nm (160 W/cm^2)): 28%; cure speed compared with photoinitiators known from prior art such as Omnicat BL 550 [1]: higher cure speed; ε at 365 nm [2]: 3600 M⁻¹ cm⁻¹; ε at 385 nm [2]: 1622 M⁻¹ cm⁻¹

**Q.** Which results are given for `COc1ccccc1-c1cc(-[s+]2c3ccccc3c(=O)c3cc(C(C)C)ccc32)ccc1OC` (stereo not shown) [Photoinitiator 28, 10-(2′,6-dimethoxy[1,1′-biphenyl]-3-yl)-9-oxo-2-(propan-2-yl)-9H-thioxanthen-10-ium hexafluorophosphate]?
**A.** Polymerization rate Rp/[M0]*100 [1, 8]: 2.29 s⁻¹; Final conversion ([1]; LED @365 nm (120 W/cm^2)): 34%; Polymerization rate Rp/[M0]*100 ([1]; LED @385 nm (160 W/cm^2)): 5.78 s⁻¹; Final conversion ([1]; LED @385 nm (160 W/cm^2)): 36%; ε at 365 nm [2]: 426 M⁻¹ cm⁻¹; ε at 385 nm [2]: 268 M⁻¹ cm⁻¹

**Q.** Which “Polymerization rate Rp/[M0]*100” value [1, 8] does the source give for `CCCOc1ccc(Cl)c2c(=O)c3ccccc3[s+](-c3ccc(-c4ccc(OC)cc4)cc3)c12` (stereo not shown) [Photoinitiator 32, 1-chloro-10-(4′-methoxy[1,1′-biphenyl]-4-yl)-9-oxo-4-propoxy-9H-thioxanthen-10-ium Hexafluorophosphate] here?
**A.** 3.73 s⁻¹

**Q.** And the Final conversion ([1]; LED @365 nm (120 W/cm^2))?
**A.** 28%

**Q.** What about the “Polymerization rate Rp/[M0]*100” value ([1]; LED @385 nm (160 W/cm^2)) of the same compound?
**A.** 4.86 s⁻¹

**Q.** What about the Final conversion ([1]; LED @385 nm (160 W/cm^2)) of the same compound?
**A.** 33%

**Q.** And the “cure speed compared with photoinitiators known from prior art such as Omnicat BL 550” value [1]?
**A.** higher cure speed

**Q.** And the “ε at 365 nm” value [2]?
**A.** 4507 M⁻¹ cm⁻¹

**Q.** And the “ε at 385 nm” value [2]?
**A.** 2055 M⁻¹ cm⁻¹

**Q.** With `CCc1cc(CC)c2sc3ccc(-[s+]4c5ccccc5c(=O)c5cc(CC)cc(CC)c54)cc3c(=O)c2c1` (stereo not shown) [Photoinitiator 40, 10-(5,7-diethyl-9-oxo-9H-thioxanthen-2-yl)-2,4-diethyl-9-oxo-9H-thioxanthen-10-ium Hexafluorophosphate] as the compound, how does the “Polymerization rate Rp/[M0]*100” value [1, 8] read?
**A.** 2.72 s⁻¹

**Q.** What about the Final conversion ([1]; LED @365 nm (120 W/cm^2)) of the same compound?
**A.** 18%

**Q.** And the “Polymerization rate Rp/[M0]*100” value ([1]; LED @385 nm (160 W/cm^2))?
**A.** 5.89 s⁻¹

**Q.** What about the Final conversion ([1]; LED @385 nm (160 W/cm^2)) of the same compound?
**A.** 38%

**Q.** What about the “ε at 365 nm” value [2] of the same compound?
**A.** 19117 M⁻¹ cm⁻¹

**Q.** And the “ε at 385 nm” value [2]?
**A.** 15504 M⁻¹ cm⁻¹

**Q.** What about the “Acrylate Polymerization rate Rp/[M0]*100” value [6] of the same compound?
**A.** 5.86 s⁻¹

**Q.** And the “Acrylate Final conversion” value [6]?
**A.** 65%

**Q.** And the “Acrylate Final conversion” value [7]?
**A.** 83%

**Q.** And the “Acrylate Polymerization rate Rp/[M0]*100” value [7]?
**A.** 10.81 s⁻¹

**Q.** And the “Epoxy Final conversion” value [7]?
**A.** 52%

**Q.** What about the “Epoxy Polymerization rate Rp/[M0]*100” value [7] of the same compound?
**A.** 6.46 s⁻¹
